Test results reported in patent US8759104B2, “Cationic lipids” (The University Court of the University of Edinburgh, priority 2010, dated 2014).

What follows are molecules tested on HeLa cells (assay: Transfection of pEGFP-C1 reporter plasmid into HeLa cells, GFP expression by flow cytometry). Conditions: HeLa cells 48 h after transfection with reporter plasmid, flow cytometry.
Type: cell-based, human
Description: The corresponding cationic lipid (1 mM in methanol) were mixed in different proportions with DOPE (10 mg/mL in chloroform) and the organic solvent removed by evaporation in an oven (37° C.) overnight. The resultant thin films were then hydrated with PBS. The solutions were vortexed (10-20 s) and incubated at ambient temperature for 20 min. Plasmid DNA or siRNA solution (0.04 mg/mL in PBS or another isotonic solution) was subsequently added and the solution vortexed (10-20 s). The lipoplexes were incubated at room temperature for 20 min before being used.
Human HeLa cells were grown in RPMI supplemented with 4 mM glutamine, 10% FCS and 100 units/ml penicillin/streptomycin (RPMI-CM) until 80% confluence. HEK293 and B16F10 cells were grown in DMEM supplemented with 4 mM glutamine, 10% FCS and 100 units/ml penicillin/streptomycin (DMEM-CM) until 80% confluence. Cells were then suspended using trypsin/EDTA and counted. 2×10^4 cells in 150 μL of media per well were seeded in 96 well plates and incubated overnight. The day afterwards, the different lipoplex formulations were added. Each experiment was performed in quadruplicate, using Effectene® Transfection Reagent (Qiagen), Lipofectamine™ 2000 (Invitrogen) and Fugene (Roche) as positive controls and untreated cells as negative controls. After two days incubation at 37° C. and 5% CO2 (the change of media after transfection was not necessary), the green fluorescent protein (GFP) expression, as a consequence of transfecting the pEGFP-C1, was evidenced using a fluorescent microscope (Leica) and measured by flow cytometry. For the flow cytometry analysis, cells were washed twice with PBS, detached with trypsin/EDTA, harvested with 2% ferum bovine serum (FBS) in PBS, centrifuged and resuspended with 2% FBS in PBS and analyzed using a BD FACSaria flow cytometer. Transfection efficiency was measured as percentage of transfected cells.
Reagents that obtained greater than 50% transfection were also analyzed against HEK293 and B16F10 cell lines. Transfection results (+ percentages of transfection between 5-25%; ++ percentages of transfection between 25-50%; N.D. not determined). MTT toxicity assay results are indicated between brackets with 100% being cell viability of untreated cells.
With CCCCCCCCCCCCCCCC(=O)NCCN(CCNC(=O)CCCCCCCCCCCCCCC)C(=O)/C=C\C(=O)N[C@@H](CCCNC(=N)N)C(N)=O.O=C(O)C(F)(F)F [Compound A1-Sp2-P] the “Transfection results (percentage of transfected cells), HeLa” value was “++ (percentages of transfection between 25-50%)”.
For CCCCCCCCCCCCCCCC(=O)NCCCN(CCCNC(=O)CCCCCCCCCCCCCCC)C(=O)CCC(=O)N[C@@H](CCCNC(=N)N)C(=O)N[C@@H](CCCNC(=N)N)C(N)=O.O=C(O)C(F)(F)F.O=C(O)C(F)(F)F [Compound A2-Sp3-P], the “Transfection results (percentage of transfected cells), HeLa” value was “+ (percentages of transfection between 5-25%)”.
With CCCCCCCCCCCCCCCCCCCC(=O)NCCCN(CCCNC(=O)CCCCCCCCCCCCCCCCCCC)C(=O)CCC(=O)N[C@@H](CCCNC(=N)N)C(=O)N[C@@H](CCCNC(=N)N)C(N)=O.O=C(O)C(F)(F)F.O=C(O)C(F)(F)F [Compound A2-Sp3-A] the “Transfection results (percentage of transfected cells), HeLa” value was “+ (percentages of transfection between 5-25%)”.
CCCCCCCC/C=C\CCCCCCCC(=O)NCCCN(CCCNC(=O)CCCCCCC/C=C\CCCCCCCC)C(=O)/C=C\C(=O)N[C@@H](CCCNC(=N)N)C(N)=O.O=C(O)C(F)(F)F [Compound A1-Sp4-O] was tested, and the “Transfection results (percentage of transfected cells), HeLa” value was “+ (percentages of transfection between 5-25%)”.
In the case of CCCCCCCCCCCCCCCCCC(=O)NCCN(CCNC(=O)CCCCCCCCCCCCCCCCC)C(=O)CCC(=O)N[C@@H](CCCNC(=N)N)C(=O)N[C@@H](CCCNC(=N)N)C(N)=O.O=C(O)C(F)(F)F.O=C(O)C(F)(F)F [Compound A2-Sp1-S], the “Transfection results (percentage of transfected cells), HeLa” value is reported as “+ (percentages of transfection between 5-25%)”.
For CCCCCCCCCCCCCCCCCCCCCCCC(=O)NCCCN(CCCNC(=O)CCCCCCCCCCCCCCCCCCCCCCC)C(=O)CCC(=O)N[C@@H](CCCNC(=N)N)C(=O)N[C@@H](CCCNC(=N)N)C(=O)N[C@@H](CCCNC(=N)N)C(N)=O.O=C(O)C(F)(F)F.O=C(O)C(F)(F)F.O=C(O)C(F)(F)F [Compound A3-Sp3-L], the “Transfection results (percentage of transfected cells), HeLa” value was “+ (percentages of transfection between 5-25%)”.
With CCCCCCCCCCCCCCCCCCCCCCCC(=O)NCCN(CCNC(=O)CCCCCCCCCCCCCCCCCCCCCCC)C(=O)/C=C\C(=O)N[C@@H](CCCNC(=N)N)C(N)=O.O=C(O)C(F)(F)F [Compound A1-Sp2-L] the “Transfection results (percentage of transfected cells), HeLa” value was “+ (percentages of transfection between 5-25%)”.
With CCCCCCCC/C=C\CCCCCCCC(=O)NCCN(CCNC(=O)CCCCCCC/C=C\CCCCCCCC)C(=O)CCC(=O)N[C@@H](CCCNC(=N)N)C(N)=O.O=C(O)C(F)(F)F [Compound A1-Sp1-O] the “Transfection results (percentage of transfected cells), HeLa” value was “+ (percentages of transfection between 5-25%)”.
CCCCCCCCCCCCCCCCCC(=O)NCCCN(CCCNC(=O)CCCCCCCCCCCCCCCCC)C(=O)/C=C\C(=O)N[C@@H](CCCNC(=N)N)C(=O)N[C@@H](CCCNC(=N)N)C(=O)N[C@@H](CCCNC(=N)N)C(N)=O.O=C(O)C(F)(F)F.O=C(O)C(F)(F)F.O=C(O)C(F)(F)F [Compound A3-Sp4-S] was tested, and the “Transfection results (percentage of transfected cells), HeLa” value was “+ (percentages of transfection between 5-25%)”.
CCCCCCCCCCCCCCCCCCCC(=O)NCCN(CCNC(=O)CCCCCCCCCCCCCCCCCCC)C(=O)/C=C\C(=O)N[C@@H](CCCNC(=N)N)C(=O)N[C@@H](CCCNC(=N)N)C(N)=O.O=C(O)C(F)(F)F.O=C(O)C(F)(F)F [Compound A2-Sp2-A] was tested, and the “Transfection results (percentage of transfected cells), HeLa” value was “++ (percentages of transfection between 25-50%)”.
For CCCCCCCCCCCCCCCCCCCC(=O)NCCN(CCNC(=O)CCCCCCCCCCCCCCCCCCC)C(=O)CCC(=O)N[C@@H](CCCNC(=N)N)C(=O)N[C@@H](CCCNC(=N)N)C(=O)N[C@@H](CCCNC(=N)N)C(N)=O.O=C(O)C(F)(F)F.O=C(O)C(F)(F)F.O=C(O)C(F)(F)F [Compound A3-Sp1-A], the “Transfection results (percentage of transfected cells), HeLa” value was “+ (percentages of transfection between 5-25%)”.
With CCCCCCCCCCCCCCCCCCCC(=O)NCCCN(CCCNC(=O)CCCCCCCCCCCCCCCCCCC)C(=O)/C=C\C(=O)N[C@@H](CCCNC(=N)N)C(N)=O.O=C(O)C(F)(F)F [Compound A1-Sp4-A] the “Transfection results (percentage of transfected cells), HeLa” value was “+ (percentages of transfection between 5-25%)”.
For CCCCCCCCCCCCCCCCCCCCCCCC(=O)NCCCN(CCCNC(=O)CCCCCCCCCCCCCCCCCCCCCCC)C(=O)/C=C\C(=O)N[C@@H](CCCNC(=N)N)C(=O)N[C@@H](CCCNC(=N)N)C(N)=O.O=C(O)C(F)(F)F.O=C(O)C(F)(F)F [Compound A2-Sp4-L], the “Transfection results (percentage of transfected cells), HeLa” value was “+ (percentages of transfection between 5-25%)”.
With CCCCCCCCCCCCCCCCCCCCCCCC(=O)NCCN(CCNC(=O)CCCCCCCCCCCCCCCCCCCCCCC)C(=O)CCC(=O)N[C@@H](CCCNC(=N)N)C(N)=O.O=C(O)C(F)(F)F [Compound A1-Sp1-L] the “Transfection results (percentage of transfected cells), HeLa” value was “+ (percentages of transfection between 5-25%)”.
With CCCCCCCCCCCCCCCCCCCCCCCC(=O)NCCCN(CCCNC(=O)CCCCCCCCCCCCCCCCCCCCCCC)C(=O)CCC(=O)N[C@@H](CCCNC(=N)N)C(N)=O.O=C(O)C(F)(F)F [Compound A1-Sp3-L] the “Transfection results (percentage of transfected cells), HeLa” value was “+ (percentages of transfection between 5-25%)”.
In the case of CCCCCCCC/C=C\CCCCCCCC(=O)NCCCN(CCCNC(=O)CCCCCCC/C=C\CCCCCCCC)C(=O)CCC(=O)N[C@@H](CCCNC(=N)N)C(=O)N[C@@H](CCCNC(=N)N)C(N)=O.O=C(O)C(F)(F)F.O=C(O)C(F)(F)F [Compound A2-Sp3-O], the “Transfection results (percentage of transfected cells), HeLa” value is reported as “++ (percentages of transfection between 25-50%)”.
With CCCCCCCCCCCCCCCC(=O)NCCCN(CCCNC(=O)CCCCCCCCCCCCCCC)C(=O)/C=C\C(=O)N[C@@H](CCCNC(=N)N)C(N)=O.O=C(O)C(F)(F)F [Compound A1-Sp4-P] the “Transfection results (percentage of transfected cells), HeLa” value was “+ (percentages of transfection between 5-25%)”.
For CCCCCCCC/C=C\CCCCCCCC(=O)NCCN(CCNC(=O)CCCCCCC/C=C\CCCCCCCC)C(=O)/C=C\C(=O)N[C@@H](CCCNC(=N)N)C(N)=O.O=C(O)C(F)(F)F [Compound A1-Sp2-O], the “Transfection results (percentage of transfected cells), HeLa” value was “+ (percentages of transfection between 5-25%)”.
In the case of CCCCCCCCCCCCCCCCCCCC(=O)NCCCN(CCCNC(=O)CCCCCCCCCCCCCCCCCCC)C(=O)CCC(=O)N[C@@H](CCCNC(=N)N)C(=O)N[C@@H](CCCNC(=N)N)C(=O)N[C@@H](CCCNC(=N)N)C(N)=O.O=C(O)C(F)(F)F.O=C(O)C(F)(F)F.O=C(O)C(F)(F)F [Compound A3-Sp3-A], the “Transfection results (percentage of transfected cells), HeLa” value is reported as “+ (percentages of transfection between 5-25%)”.
With CCCCCCCCCCCCCCCC(=O)NCCN(CCNC(=O)CCCCCCCCCCCCCCC)C(=O)CCC(=O)N[C@@H](CCCNC(=N)N)C(N)=O.O=C(O)C(F)(F)F [Compound A1-Sp1-P] the “Transfection results (percentage of transfected cells), HeLa” value was “+ (percentages of transfection between 5-25%)”.
In the case of CCCCCCCC/C=C\CCCCCCCC(=O)NCCN(CCNC(=O)CCCCCCC/C=C\CCCCCCCC)C(=O)CCC(=O)N[C@@H](CCCNC(=N)N)C(=O)N[C@@H](CCCNC(=N)N)C(N)=O.O=C(O)C(F)(F)F.O=C(O)C(F)(F)F [Compound A2-Sp1-O], the “Transfection results (percentage of transfected cells), HeLa” value is reported as “++ (percentages of transfection between 25-50%)”.
With CCCCCCCCCCCCCCCCCCCCCCCC(=O)NCCCN(CCCNC(=O)CCCCCCCCCCCCCCCCCCCCCCC)C(=O)CCC(=O)N[C@@H](CCCNC(=N)N)C(=O)N[C@@H](CCCNC(=N)N)C(N)=O.O=C(O)C(F)(F)F.O=C(O)C(F)(F)F [Compound A2-Sp3-L] the “Transfection results (percentage of transfected cells), HeLa” value was “+ (percentages of transfection between 5-25%)”.
In the case of CCCCCCCCCCCCCCCCCCCCCCCC(=O)NCCCN(CCCNC(=O)CCCCCCCCCCCCCCCCCCCCCCC)C(=O)/C=C\C(=O)N[C@@H](CCCNC(=N)N)C(=O)N[C@@H](CCCNC(=N)N)C(=O)N[C@@H](CCCNC(=N)N)C(N)=O.O=C(O)C(F)(F)F.O=C(O)C(F)(F)F.O=C(O)C(F)(F)F [Compound A3-Sp4-L], the “Transfection results (percentage of transfected cells), HeLa” value is reported as “++ (percentages of transfection between 25-50%)”.
With CCCCCCCCCCCCCCCCCC(=O)NCCCN(CCCNC(=O)CCCCCCCCCCCCCCCCC)C(=O)CCC(=O)N[C@@H](CCCNC(=N)N)C(=O)N[C@@H](CCCNC(=N)N)C(N)=O.O=C(O)C(F)(F)F.O=C(O)C(F)(F)F [Compound A2-Sp3-S] the “Transfection results (percentage of transfected cells), HeLa” value was “+ (percentages of transfection between 5-25%)”.
With CCCCCCCC/C=C\CCCCCCCC(=O)NCCCN(CCCNC(=O)CCCCCCC/C=C\CCCCCCCC)C(=O)CCC(=O)N[C@@H](CCCNC(=N)N)C(=O)N[C@@H](CCCNC(=N)N)C(=O)N[C@@H](CCCNC(=N)N)C(N)=O.O=C(O)C(F)(F)F.O=C(O)C(F)(F)F.O=C(O)C(F)(F)F [Compound A3-Sp3-O] the “Transfection results (percentage of transfected cells), HeLa” value was “++ (percentages of transfection between 25-50%)”.
CCCCCCCCCCCCCCCC(=O)NCCCN(CCCNC(=O)CCCCCCCCCCCCCCC)C(=O)CCC(=O)N[C@@H](CCCNC(=N)N)C(=O)N[C@@H](CCCNC(=N)N)C(=O)N[C@@H](CCCNC(=N)N)C(N)=O.O=C(O)C(F)(F)F.O=C(O)C(F)(F)F.O=C(O)C(F)(F)F [Compound A3-Sp3-P] was tested, and the “Transfection results (percentage of transfected cells), HeLa” value was “++ (percentages of transfection between 25-50%)”.
